Assays:
[1] = system: 2 HPV-positive cell lines with TRIP13 overexpression; assay: Apoptosis with TRIP13 overexpression, HPV-positive cells; type: cell-based; conditions: 300 nmol/L, 24 or 32 hours
Experimental: FIG. 5A, two HPV-positive cell lines (CASKI and SIHA) were transfected with BUB1B or MAD2L1 siRNA and then treated for 24 hours with 300 nmol/L alisertib before lysis and immunoblotting with the indicated antibodies. FIG. 5B, TRIP13 was transiently overexpressed (Ox) in 2 HPV-positive cell lines that were treated for 24 hours with 300 nmol/L alisertib before lysis and immunoblotting for the indicated proteins. FIG. 5C, HPV-positive cell lines with TRIP13 overexpression were treated with 300 nmol/L alisertib for 32 hours and then stained for annexin V-PE/7AAD staining and analysis with flow cytometry to measure apoptosis. The bar graph represents the ratio of apoptosis (late plus early) among different groups. Values are the means±the standard deviations for 3 independent experiments. ** P≤0.01; *** P≤0.001; unpaired, 2-tailed Student t-test. FIG. 5D, HN31 (left panel) and MDA886LN (right panel) cells expressing RB1 or control shRNA were transfected with a plasmid for TRIP13. After 24 hours, cells were treated with 300 nmol/L alisertib and then lysed for immunoblotting. Cl, cleaved; Fl, full length; GAPDH, glyceraldehyde 3-phosphate dehydrogenase.
In normal cells, prolonged mitosis resulting from Mad2 overexpression can lead to G1 arrest or mitotic cell death, so it is unclear why Mad2 overexpression is tolerated in HPV-positive cancers. […]

[2] = system: PDX tumors HOSC144, HOSC19, HOSC156 (p16-positive oropharynx cancer); assay: In vivo tumor growth study, HPV-positive PDX models; parameters: species or system nude mice
Experimental: (§1) PDX tumors HOSC144 (FIG. 3A, FIG. 3E, FIG. 3F), HOSC19 (FIG. 3B), and HOSC156 (FIG. 3C) were implanted into the flanks of nude mice. After engraftment, mice were randomized and assigned into 1 of 2 treatment groups: vehicle (β-cyclodextrin, n=8) or alisertib (10 mg/kg, n=8). Mice were treated for 3 weeks by daily oral gavage. Tumor size was measured twice a week. FIG. 3A, FIG. 3B, and FIG. 3C show in vivo tumor growth curves for individual mice (left 3 panels). Survival (right panels) was measured using the Kaplan-Meier method. In FIG. 3D, HPV-negative UMSCC22A cells were injected subcutaneously (3×10^6 cells) on the right flanks of the mice. Once the tumor volume reached ≥60 mm^3, mice were randomized into treatment groups. Mice were treated with vehicle or 10 mg/kg alisertib by oral gavage for 5 days per week for 21 days. Tumor size was measured twice a week. […] The Ki67(%) was calculated as the ratio of proliferative cells to total cells in each field, using five random fields. […] The apoptotic (%) was calculated as the ratio of apoptotic cells to total cells in each field, using five random fields in HOSC144 PDX tumors after 8 or 21 days of treatment with either vehicle or alisertib. ** P≤0.01; *** P≤0.001. Bars, 100 μM.
The in vivo tumor growth study was performed in accordance with the Guide for the Care and Use of Laboratory Animals of the National Institutes of Health and approved by MD Anderson's Institutional Animal Care and Use Committee. The PDX models were generated as described previously (Peng, et al., J Transl Med 2013; 11:198), and subjected to qPCR as described to determine the HPV type (Chaturvedi, et al., The Journal of Infectious Diseases 2014; 210(3):441-7; Fakhry, et al, JAMA Oncol 2019; 5(7):985-92). Briefly, tumor tissue was cut into small fragments (5-6 mm) and implanted subcutaneously into the flanks of nude mice. The skin incisions were closed with skin clips that were removed after 10 to 15 days. Once tumors reached an average of 150 to 300 mm^3, the mice were randomized into either vehicle group or alisertib group. Alisertib (Takeda Pharmaceuticals, Lexington, MA; 10 mg/kg in 10% β-cyclodextrin) was administered via oral gavage once daily on a weekly schedule of 6 days on and 1 day off. Tumors were monitored daily, and tumor volume (length×width^2×0.5) was evaluated twice per week with digital calipers. Mice were euthanized when tumors reached 2000 mm^3. The endpoint for the survival studies was the tumor burden. Survival was measured using the Kaplan-Meier method. Survival curve analysis was performed with GraphPad Prism software version 9 (RRID:SCR_002798).
To test the effect of Aurora kinase inhibition in vivo, three patient-derived xenograft (PDX) models that were derived from patients with p16-positive oropharynx cancer [HOSC144 (HPV16, HPV52), HOSC19 (HPV18, HPV59), and HOSC 156 (HPV18)], were implanted in nude mice. A low dose of alisertib (10 mg/kg) was administered continuously for 3 weeks. […] In addition, an HPV-negative cell line with high Rb protein levels was also tested and it was observed that it was resistant to alisertib treatment (FIG. 3D).

[3] = system: HPV-negative UMSCC22A cells; assay: In vivo tumor growth, HPV-negative xenograft; parameters: species or system mice; conditions: 10 mg/kg oral gavage 5 days per week for 21 days, high Rb protein levels
Experimental: as §1, with “[…]. […]” for “μM.”

HPV-negative cell lines = assay: Rb family protein and cleaved caspase-3 levels in HPV-negative cells; type: cell-based
Excerpt: The effect of RB1 silencing on the expression of other RB family members (RBL1, RBL2) was also examined. It was observed that the levels of RBL1 remained unchanged with the treatment. However, the protein levels of RBL2 decreased with RB1 silencing as well as with alisertib treatment. The effect of RB1 silencing on RBL2 was likely due to pooled siRNAs. Using RB1 shRNA, an effect of RB1 depletion on RBL2 was not observed, but the enhanced alisertib-induced apoptosis was observed, supporting a role for RB1 alone in this effect.
A decrease of Rb protein expression following Aurora kinase inhibition was noted, that may be related to G2/M cell cycle arrest. Alternatively, it may be that the HPV negative cells with low Rb expression are the ones that survive after Aurora inhibition. To test this at the single cell level, two HPV-negative cell lines were co-stained with anti-Rb labelled with FITC conjugate and anti-cleaved caspase-3 labelled with TRITC and treated with alisertib or vehicle control. As expected in these unsynchronized cells, Rb expression was detectable, but modestly heterogeneous in control cells. […] Consistent with prior data, cells with higher Rb levels have no or very low levels of cleaved caspase-3. Cells with lower Rb levels have modest levels of cleaved caspase-3.

[4] = HOSC144 tumors, days 8 and 21, vs vehicle
[5] = two HPV-negative cell lines, vs control cells

## COc1cc(Nc2ncc3c(n2)-c2ccc(Cl)cc2C(c2c(F)cccc2OC)=NC3)ccc1C(=O)O [ALISERTIB, alisertib]
[1]
  apoptosis with TRIP13 overexpression (PARP and caspase-3 cleavage, annexin V): partial rescue
[2]; 10 mg/kg oral gavage, 3 weeks
  response after treatment was stopped: sustained response
  tumor growth: clear evidence of tumor regression
[2]; 10 mg/kg oral gavage, 3 weeks, Kaplan-Meier
  survival duration: concordant increase in survival duration
[2]; [4]
  Ki67 staining in tumors: significantly lower levels of Ki67 staining
  cleaved caspase-3 in tumors: increased levels of cleaved caspase-3
[3]
  tumor response: resistant
HPV-negative cell lines
  protein levels of RBL2: decreased
HPV-negative cell lines; [5]
  Rb expression (single cell staining): notably lower
  cleaved caspase 3 (single cell staining): slightly higher
